The values below are quoted from earlier work in PubChem BioAssay AID1259409 (Chemical Carcinogenesis Research Information System (CCRIS), 2018).

This data set relates to rodent chemically induced tumor inhibition, incidence and multiplicity. The experiment in a line: CCRIS tumor inhibitor studies.

As for `ClC(Cl)Cl`, the “tumour outcome (control, treated, inhibition, significance)” value runs as follows: (Carcinogen: 1,2-DIMETHYLHYDRAZINE DIHYDROCHLORIDE, 306-37-6, Dose [Inhibitor]: 900 MG/L IN DRINKING WATER BEGINNING 7 D POST CARCINOGEN DOSE AND CONTINUING FOR 39 WK (STUDY DURATION: 39 WK), Route [Inhibitor]: ORAL, Species: RAT, Strain/Sex: F344/MALE, Target Tissue: Type of Lesion: GASTROINTESTINAL TRACT: TUMOR, Dose [Carcinogen]: 200 MG/KG ONCE, Promoter: NONE USED) 14/39 (36%), 5/39 (13%), 64%, not calculated; (Carcinogen: 1,2-DIMETHYLHYDRAZINE DIHYDROCHLORIDE, 306-37-6, Dose [Inhibitor]: 1800 MG/L IN DRINKING WATER BEGINNING 7 D POST CARCINOGEN DOSE AND CONTINUING FOR 39 WK (STUDY DURATION: 39 WK), Route [Inhibitor]: ORAL, Species: RAT, Strain/Sex: F344/MALE, Target Tissue: Type of Lesion: GASTROINTESTINAL TRACT: TUMOR, Dose [Carcinogen]: 200 MG/KG ONCE, Promoter: NONE USED) 14/39 (36%), 5/40 (13%), 64%, not calculated; (Carcinogen: ETHYLNITROSOUREA, 759-73-9, Dose [Inhibitor]: 0, 1800 PPM IN DRINKING WATER BEGINNING AT 5 WK OF AGE AND CONTINUING TO 51 WK OF AGE (STUDY DURATION: 52 WK), Route [Inhibitor]: ORAL, Species: MOUSE, Strain/Sex: CD-1/FEMALE, Target Tissue: Type of Lesion: LUNG: ADENOMA, Dose [Carcinogen]: 5 MG/KG ONCE AT 15 D OF AGE, Promoter: NONE USED) 10/36 (28%), 7/38 (18%), 36%, not calculated; (Carcinogen: ETHYLNITROSOUREA, 759-73-9, Dose [Inhibitor]: 0, 1800 PPM IN DRINKING WATER BEGINNING AT 5 WK OF AGE AND CONTINUING TO 51 WK OF AGE (STUDY DURATION: 52 WK), Route [Inhibitor]: ORAL, Species: MOUSE, Strain/Sex: CD-1/FEMALE, Target Tissue: Type of Lesion: LUNG: ADENOMA, Dose [Carcinogen]: 20 MG/KG ONCE AT 15 D OF AGE, Promoter: NONE USED) 25/39 (64%), 23/45 (51%), 20%, not calculated; (Carcinogen: ETHYLNITROSOUREA, 759-73-9, Dose [Inhibitor]: 0, 1800 PPM IN DRINKING WATER BEGINNING AT 5 WK OF AGE AND CONTINUING TO 51 WK OF AGE (STUDY DURATION: 52 WK), Route [Inhibitor]: ORAL, Species: MOUSE, Strain/Sex: CD-1/FEMALE, Target Tissue: Type of Lesion: LUNG: CARCINOMA, Dose [Carcinogen]: 5 MG/KG ONCE AT 15 D OF AGE, Promoter: NONE USED) 1/36 (3%), 2/38 (5%), -67%, not calculated; (Carcinogen: ETHYLNITROSOUREA, 759-73-9, Dose [Inhibitor]: 0, 1800 PPM IN DRINKING WATER BEGINNING AT 5 WK OF AGE AND CONTINUING TO 51 WK OF AGE (STUDY DURATION: 52 WK), Route [Inhibitor]: ORAL, Species: MOUSE, Strain/Sex: CD-1/FEMALE, Target Tissue: Type of Lesion: LUNG: CARCINOMA, Dose [Carcinogen]: 20 MG/KG ONCE AT 15 D OF AGE, Promoter: NONE USED) 2/39 (5%), 5/45 (11%), -120%, not calculated. The “tumour outcome (control, treated, inhibition, significance)” value is given as 8/39 (21%), 1/25 (4%), 81%, p<0.05 (Carcinogen: ETHYLNITROSOUREA, 759-73-9, Dose [Inhibitor]: 0, 1800 PPM IN DRINKING WATER BEGINNING AT 5 WK OF AGE AND CONTINUING TO 51 WK OF AGE (STUDY DURATION: 52 WK), Route [Inhibitor]: ORAL, Species: MOUSE, Strain/Sex: CD-1/MALE, Target Tissue: Type of Lesion: LIVER: ADENOMA, Dose [Carcinogen]: 5 MG/KG ONCE AT 15 D OF AGE, Promoter: NONE USED); 22/30 (73%), 12/29 (41%), 44%, p<0.05 (Carcinogen: ETHYLNITROSOUREA, 759-73-9, Dose [Inhibitor]: 0, 1800 PPM IN DRINKING WATER BEGINNING AT 5 WK OF AGE AND CONTINUING TO 51 WK OF AGE (STUDY DURATION: 52 WK), Route [Inhibitor]: ORAL, Species: MOUSE, Strain/Sex: CD-1/MALE, Target Tissue: Type of Lesion: LIVER: ADENOMA, Dose [Carcinogen]: 20 MG/KG ONCE AT 15 D OF AGE, Promoter: NONE USED); 2/39 (5%), 0/25 (0%), 100%, not calculated (Carcinogen: ETHYLNITROSOUREA, 759-73-9, Dose [Inhibitor]: 0, 1800 PPM IN DRINKING WATER BEGINNING AT 5 WK OF AGE AND CONTINUING TO 51 WK OF AGE (STUDY DURATION: 52 WK), Route [Inhibitor]: ORAL, Species: MOUSE, Strain/Sex: CD-1/MALE, Target Tissue: Type of Lesion: LIVER: CARCINOMA, Dose [Carcinogen]: 5 MG/KG ONCE AT 15 D OF AGE, Promoter: NONE USED); 10/30 (33%), 5/29 (17%), 48%, p<0.1 (Carcinogen: ETHYLNITROSOUREA, 759-73-9, Dose [Inhibitor]: 0, 1800 PPM IN DRINKING WATER BEGINNING AT 5 WK OF AGE AND CONTINUING TO 51 WK OF AGE (STUDY DURATION: 52 WK), Route [Inhibitor]: ORAL, Species: MOUSE, Strain/Sex: CD-1/MALE, Target Tissue: Type of Lesion: LIVER: CARCINOMA, Dose [Carcinogen]: 20 MG/KG ONCE AT 15 D OF AGE, Promoter: NONE USED); 11/39 (29%), 10/25 (40%), -38%, not calculated (Carcinogen: ETHYLNITROSOUREA, 759-73-9, Dose [Inhibitor]: 0, 1800 PPM IN DRINKING WATER BEGINNING AT 5 WK OF AGE AND CONTINUING TO 51 WK OF AGE (STUDY DURATION: 52 WK), Route [Inhibitor]: ORAL, Species: MOUSE, Strain/Sex: CD-1/MALE, Target Tissue: Type of Lesion: LUNG: ADENOMA, Dose [Carcinogen]: 5 MG/KG ONCE AT 15 D OF AGE, Promoter: NONE USED); 15/30 (50%), 12/29 (41%), 18%, not calculated (Carcinogen: ETHYLNITROSOUREA, 759-73-9, Dose [Inhibitor]: 0, 1800 PPM IN DRINKING WATER BEGINNING AT 5 WK OF AGE AND CONTINUING TO 51 WK OF AGE (STUDY DURATION: 52 WK), Route [Inhibitor]: ORAL, Species: MOUSE, Strain/Sex: CD-1/MALE, Target Tissue: Type of Lesion: LUNG: ADENOMA, Dose [Carcinogen]: 20 MG/KG ONCE AT 15 D OF AGE, Promoter: NONE USED). The “tumour outcome (control, treated, inhibition, significance)” value is 1/39 (3%), 1/25 (4%), -33%, not calculated (Carcinogen: ETHYLNITROSOUREA, 759-73-9, Dose [Inhibitor]: 0, 1800 PPM IN DRINKING WATER BEGINNING AT 5 WK OF AGE AND CONTINUING TO 51 WK OF AGE (STUDY DURATION: 52 WK), Route [Inhibitor]: ORAL, Species: MOUSE, Strain/Sex: CD-1/MALE, Target Tissue: Type of Lesion: LUNG: CARCINOMA, Dose [Carcinogen]: 5 MG/KG ONCE AT 15 D OF AGE, Promoter: NONE USED) and 2/30 (7%), 4/29 (14%), -100%, not calculated (Carcinogen: ETHYLNITROSOUREA, 759-73-9, Dose [Inhibitor]: 0, 1800 PPM IN DRINKING WATER BEGINNING AT 5 WK OF AGE AND CONTINUING TO 51 WK OF AGE (STUDY DURATION: 52 WK), Route [Inhibitor]: ORAL, Species: MOUSE, Strain/Sex: CD-1/MALE, Target Tissue: Type of Lesion: LUNG: CARCINOMA, Dose [Carcinogen]: 20 MG/KG ONCE AT 15 D OF AGE, Promoter: NONE USED).

As to `C=C(C)[C@@H]1CC=C2C(=CC[C@]3(C)[C@@H](C(CCC=C(C)C)C(=O)O)[C@H](O)C[C@@]23C)[C@@]1(C)CCC(=O)O` (stereo partly specified), the “tumour outcome (control, treated, inhibition, significance)” value (Carcinogen: 7,12-DIMETHYLBENZ[A]ANTHRACENE, 57-97-6, Dose [Inhibitor]: 0, 0.2 UMOL 2/WK FOR 19 WK BEGINNING 1 WK POST CARCINOGEN DOSE (STUDY DURATION: 20 WK), Route [Inhibitor]: DERMAL, Species: MOUSE, Strain/Sex: ICR, Target Tissue: Type of Lesion: SKIN: PAPILLOMA, Dose [Carcinogen]: 50 UG ONCE, Promoter: 12-O-TETRADECANOYLPHORBOL-13-ACETATE, 16561-29-8) is 73%, 32%, 56%, not calculated and the “tumour outcome (control, treated, inhibition, significance)” value (Carcinogen: 7,12-DIMETHYLBENZ[A]ANTHRACENE, 57-97-6, Dose [Inhibitor]: 0, 0.2 UMOL IN 100 µL ACETONE:DMSO (9:1) 2/WK FOR 20 WK APPLIED 30 MIN PRIOR TO EACH CARCINOGEN DOSE (STUDY DURATION: 20, Route [Inhibitor]: DERMAL, Species: MOUSE, Strain/Sex: ICR/FEMALE, Target Tissue: Type of Lesion: SKIN: PAPILLOMA, Dose [Carcinogen]: 50 UG IN 100 µL ACETONE ONCE, Promoter: 12-O-TETRADECANOYLPHORBOL-13-ACETATE, 16561-29-8) is 73%, 33%, 55%, p<0.05.
